Reference: US20110045065A1, “SUBSTANCE HAVING ANTIOXIDANT, GEROPROTECTIVE AND ANTI-ISCHEMIC ACTIVITY AND METHOD FOR THE PREPARATION THEREOF” (priority 2005, published 2011)

Experiments:
[1] = system: lipofuscin induced cardiolipin photoperoxidation; assay: Inhibition of lipofuscin induced cardiolipin liposome photoperoxidation; type: biochemical, human; details: for Concentration of TBK-active products / Inhibition: 2 mM compound; for Inhibiting / protective effect regarding phototoxic action of lipofuscin granules: result in words
Procedure: Liposomes are prepared from methanolic solution of cardiolipin (initial concentration: 5 mg/ml) by evaporation of methanol and solubilization of cardiolipin in a phosphate buffer. A mixture comprising a suspension of liposomes and lipofuscin granules, isolated from tissue of a retinal pigmentary epithelium of a human eye, is subjected to irradiation with intensive blue light under constant stirring. Concentration of lipid peroxidation products (TBK-active products) is determined after 20, 40, 60 and 90 minutes. The experimental sample contained 2 mM of a solution of compound Ic, or 2 mM of a solution of mexydole.

[2] = system: external segments of photoreceptor cells; assay: Ascorbate-induced peroxidation of external segments of photoreceptor cells; type: biochemical, pig
Text: The external segments of photoreceptor cells are obtained from pig retinas according to standard procedure, using methods of differential centrifuging in a saccharose density gradient. […] Subsequently, the process was stopped by 15% trichloroacetic acid, and the concentration of TBK-active products has been determined. Samples being free of compound Ic were used as a control.
In these experiments a comparison of the speed of ascorbate-induced peroxidation of external segments of photoreceptor cells of pig eyes has been carried out, said comparison being determined with respect to the accumulation of TBK-active products in the presence of different compound I salts.

[3] = system: acute myocardial ischemia (occlusion of the coronary artery of rats); assay: Sizes of necrosis and ischemia zones in acute myocardial ischemia; type: in vivo, rat
Procedure: The experiments are carried out with non-pedigree male rats having a weight of 250-300 g, which have been anesthetized with sodium ethaminale (40 mg/kg intraperitoneally). A myocardial infarction was modeled for animals, transferred to controlled breathing, by ligation of a descending branch of the left-hand coronary artery to a level of the lower edge of an auricula atrii.
The sizes of necrosis zones and ischemia zones have been determined within 4 hours after occlusion of the coronary artery by a differential indicator method, the principle of which is based on separate quantitative determination of Evans' blue (indicator of an ischemia zone) and red phormazane (indicator of an necrosis zone).

tissue of the eye = assay: Local irritant action to tissue of the eye; type: in vivo, rabbit; details: six rabbits, single instillation of 1% solution, within 1 min after dropping
Procedure: The experimental measurements are carried out on six rabbits. All animals have been subjected to single instillation of 1% solution of compound I into the right eye and 1% solution of emoxypine into the left eye. The front section of the eye is controlled by a focal illumination method with a 20 D lens within 1 min. after dropping.

[4] = rats, 16 mg/kg, within 4 hours after occlusion of the coronary artery

2,4,6-trimethyl-3-oxypyridine succinate [Compound Ic]
Concentration of TBK-active products ([1]; radiation time 0 min): 1.3 nmol/mg lipid | Inhibition ([1]; radiation time 0 min): 0% | Concentration of TBK-active products ([1]; radiation time 20 min): 2.42 nmol/mg lipid | Inhibition ([1]; radiation time 20 min): 20% | Concentration of TBK-active products ([1]; radiation time 40 min): 2.53 nmol/mg lipid | Inhibition ([1]; radiation time 40 min): 28% | Concentration of TBK-active products ([1]; radiation time 60 min): 2.85 nmol/mg lipid | Inhibition ([1]; radiation time 60 min): 40% | Concentration of TBK-active products ([1]; radiation time 90 min): 3.28 nmol/mg lipid | Inhibition ([1]; radiation time 90 min): 40% | Inhibiting / protective effect regarding phototoxic action of lipofuscin granules [1]: active inhibitor | Inhibiting / protective effect regarding phototoxic action of lipofuscin granules ([1]; listed as I): protective effect | Speed of accumulation of TBK-active products for 30 min of reacting ([2]; compound 43 mM): 0.05 nmol/mg | Inhibition ([2]; compound 43 mM, 30 min of reacting): 93.5% | Inhibition ([2]; response time 15 min, 17 mM compound, 0.5 mM ascorbic acid): 49.6% | Inhibition ([2]; response time 30 min, 17 mM compound, 0.5 mM ascorbic acid): 32.3% | Ratio of necrosis zone to ischemia zone [3, 4]: 11 ± 3.3% | Ratio of necrosis zone to total mass of the myocardium [3, 4]: 4 ± 2.3% | Anti-ischemic activity in comparison ([3]; result in words): considerably higher anti-ischemic activity than the other 3-oxypyridines | Local irritant reaction of conjunctiva, eyeglobe and cornea (tissue of the eye): do not show local irritating action on tissue of the eye | Local irritant reaction of conjunctiva, eyeglobe and cornea (tissue of the eye; listed as I): not detected
